The values below are quoted from earlier work in patent publication US20250009787A1, “Nitric Oxide Containing Foam Formulation for Topical Medical Use” (NOxy Health Products, Inc., priority 2023, published 2025).

The test system of data set [1] is leg abscesses. The settings on record: 200 ppm NO gas, average of 8.1 hours, 14 consecutive nights.
For data set [2] the following is noted: reported to be toxic at higher concentration.

Regarding Nitric oxide [NO gas], in data set [1], the lesion size entry was “significantly reduced in size”. Further, the “toxic concentration (exposure)” value in data set [2] is on record as > 200 ppm.
